# According to ChEMBL document CHEMBL4376834, “Discovery of 4H-Chromen-4-one Derivatives as a New Class of Selective Rho Kinase (ROCK) Inhibitors, which Showed Potent Activity in ex Vivo Diabetic Retinopathy Models” (J Med Chem, 2019):
# Columns and labels:
# [1] = biological target: Mitogen-activated protein kinase kinase kinase 7 (Homo sapiens, UniProt O43318); experiment: Inhibition of recombinant human TAK1 (1 to 303 residues) using casein as substrate incubated for 40 mins in presence of [gamma33P]ATP by radiometric scintillation counting analysis
# [2] = biological target: Protein kinase C delta type (Homo sapiens, UniProt Q05655); experiment: Inhibition of recombinant human PKCdelta (2 to end residues) using ERMRPRKRQGSVRR as substrate incubated for 40 mins in presence of [gamma33P]ATP by radiometric scintillation counting analysis
# [3] = biological target: Proto-oncogene tyrosine-protein kinase Src (Homo sapiens, UniProt P12931); experiment: Inhibition of recombinant human SRC (1 to 530 residues) using GGEEEEYFELVKK as substrate incubated for 40 mins in presence of [gamma33P]ATP by radiometric scintillation counting analysis
# [4] = biological target: Casein kinase I isoform gamma-3 (Homo sapiens, UniProt Q9Y6M4, E302D/K91E/R174G); experiment: Inhibition of recombinant human CK1gamma3 K91E/R174G/E302D triple mutant (1 to 330 residues) using KRRRALS(p)VAS as substrate incubated for 40 mins in presence of [gamma-33ATP] by radiometric scintillation counting analysis
# [5] = biological target: Serine/threonine-protein kinase MRCK alpha (Homo sapiens, UniProt Q5VT25); experiment: Inhibition of recombinant human MRCKalpha (1 to 473 residues) using KKRNRTLTV as substrate incubated for 40 mins in presence of [gamma-33ATP by radiometric scintillation counting analysis
# [6] = biological target: Insulin-like growth factor 1 receptor (Homo sapiens, UniProt P08069); experiment: Inhibition of human recombinant activated IGF1R (959 to end residues) using KKKSPGEYVNIEF as substrate after 40 mins by [gamma-33ATP] by radiometric scintillation counting analysis
# CDK3/Cyclin E = CDK3/Cyclin E (Homo sapiens, UniProt Q00526); experiment: Inhibition of recombinant full length human CDK3/CyclinE using Histone H1 as substrate incubated for 40 mins in presence of [gamma-33ATP] by radiometric scintillation counting analysis; type: protein-complex assay
# [7] = biological target: Hepatocyte growth factor receptor (Homo sapiens, UniProt P08581, D1228N); experiment: Inhibition of recombinant human MET A1209G/V1290L/D1246N triple mutant (974 to end residues) using KKKGQEEEYVFIE as substrate incubated for 40 mins in presence of [gamma-33ATP by radiometric scintillation counting analysis
# [8] = biological target: Serine/threonine-protein kinase D3 (Homo sapiens, UniProt O94806); experiment: Inhibition of recombinant full-length human PKD3 using KKLRRTLSVA as substrate incubated for 40 mins in presence of [gamma33P]ATP by radiometric scintillation counting analysis
# [9] = biological target: Tyrosine-protein kinase ABL1 (Homo sapiens, UniProt P00519, M351T); experiment: Inhibition of human recombinant ABL1 M351T mutant (27 to end residues) using EAIYAAPFAKKK as substrate incubated for 40 mins in presence of [gamma-33P]ATP by scintillation counting based radiometry assay
# [10] = biological target: RAC-beta serine/threonine-protein kinase (Homo sapiens, UniProt P31751, S474D); experiment: Inhibition of recombinant human PKBbeta S474D mutant (120 to end residues) using GRPRTSSFAEGKK as substrate incubated for 40 mins in presence of [gamma33P]ATP by radiometric scintillation counting analysis
# [11] = Inhibition of recombinant human EphB2 A848S/K918E double mutant (560 to end residues) using poly(Glu, Tyr) 4:1 as substrate after 40 mins in presence of [gamma-33ATP] by radiometric scintillation counting analysis
# Rhodopsin kinase GRK7 = Rhodopsin kinase GRK7 (Homo sapiens, UniProt Q8WTQ7); experiment: Inhibition of recombinant full length human GRK7 using casein as substrate after 40 mins in presence of [gamma-33ATP] by radiometric scintillation counting analysis
# [12] = biological target: PAS domain-containing serine/threonine-protein kinase (Homo sapiens, UniProt Q96RG2); experiment: Inhibition of recombinant human PASK (995 to end residues) using KKLNRTLSFAEPG as substrate measured after 40 mins in presence of [gamma33P]ATP by radiometric scintillation counting analysis
# [13] = biological target: TRAF2 and NCK-interacting protein kinase (Homo sapiens, UniProt Q9UKE5); experiment: Inhibition of human TNIK (1 to 367 residues) using RLGRDKYKTLRQI as substrate incubated for 40 mins in presence of [gamma33P]ATP by radiometric scintillation counting analysis
# CDK2/Cyclin A1 = CDK2/Cyclin A1 (Homo sapiens, UniProt P24941); experiment: Inhibition of recombinant full length human CDK2/CyclinA using Histone H1 as substrate incubated for 40 mins in presence of [gamma-33ATP] by radiometric scintillation counting analysis; type: protein-complex assay
# [14] = biological target: Tyrosine-protein kinase TXK (Homo sapiens, UniProt P42681); experiment: Inhibition of recombinant human Txk (256 to end residues) using GEEPLYWSFPAKK as substrate incubated for 40 mins in presence of [gamma33P]ATP by radiometric scintillation counting analysis
# [15] = biological target: Death-associated protein kinase 3 (Homo sapiens, UniProt O43293); experiment: Inhibition of recombinant human ZIPK (1 to 290 residues) using KKLNRTLSFAEPG substrate incubated for 40 mins in presence of [gamma33P]ATP by radiometric scintillation counting analysis
# [16] = biological target: G protein-coupled receptor kinase 6 (Homo sapiens, UniProt P43250); experiment: Inhibition of recombinant full length human GRK6 using casein as substrate after 40 mins in presence of [gamma-33ATP] by radiometric scintillation counting analysis
# [17] = Half life in rat liver microsomes measured upto 45 mins in presence of NADPH by LC-MS analysis; type: ADME, Microsome
# [18] = biological target: Tyrosine-protein kinase Fer (Homo sapiens, UniProt P16591); experiment: Inhibition of recombinant human FER (541 to end residues) using KKKSPGEYVNIEF as substrate after 40 mins in presence of [gamma-33ATP] by radiometric scintillation counting analysis
# [19] = biological target: Serine/threonine-protein kinase MAK (Homo sapiens, UniProt P20794); experiment: Inhibition of recombinant human MAK using RRRFRPASPLRGP as substrate after 120 mins in presence of [gamma-33ATP] by radiometric scintillation counting analysis
# [20] = biological target: Proto-oncogene tyrosine-protein kinase receptor Ret (Homo sapiens, UniProt P07949); experiment: Inhibition of recombinant human Ret (658 to end residues) using KKKSPGEYVNIEF as substrate incubated for 40 mins in presence of [gamma33P]ATP by radiometric scintillation counting analysis
# Ephrin type-B receptor 3 = Ephrin type-B receptor 3 (Homo sapiens, UniProt P54753); experiment: Inhibition of recombinant human EphB3 (599 to 920 residues) using poly(Glu, Tyr) 4:1 as substrate after 40 mins in presence of [gamma-33ATP] by radiometric scintillation counting analysis
# [21] = biological target: Death-associated protein kinase 1 (Homo sapiens, UniProt P53355); experiment: Inhibition of recombinant human DAPK1 (1 to 296 residues) using KKLNRTLSFAEPG as substrate incubated 40 mins in presence of [gamma-33ATP] by radiometric scintillation counting analysis
# Chain of Insulin-like growth factor 1 receptor (P08069 31-736 limits assumed): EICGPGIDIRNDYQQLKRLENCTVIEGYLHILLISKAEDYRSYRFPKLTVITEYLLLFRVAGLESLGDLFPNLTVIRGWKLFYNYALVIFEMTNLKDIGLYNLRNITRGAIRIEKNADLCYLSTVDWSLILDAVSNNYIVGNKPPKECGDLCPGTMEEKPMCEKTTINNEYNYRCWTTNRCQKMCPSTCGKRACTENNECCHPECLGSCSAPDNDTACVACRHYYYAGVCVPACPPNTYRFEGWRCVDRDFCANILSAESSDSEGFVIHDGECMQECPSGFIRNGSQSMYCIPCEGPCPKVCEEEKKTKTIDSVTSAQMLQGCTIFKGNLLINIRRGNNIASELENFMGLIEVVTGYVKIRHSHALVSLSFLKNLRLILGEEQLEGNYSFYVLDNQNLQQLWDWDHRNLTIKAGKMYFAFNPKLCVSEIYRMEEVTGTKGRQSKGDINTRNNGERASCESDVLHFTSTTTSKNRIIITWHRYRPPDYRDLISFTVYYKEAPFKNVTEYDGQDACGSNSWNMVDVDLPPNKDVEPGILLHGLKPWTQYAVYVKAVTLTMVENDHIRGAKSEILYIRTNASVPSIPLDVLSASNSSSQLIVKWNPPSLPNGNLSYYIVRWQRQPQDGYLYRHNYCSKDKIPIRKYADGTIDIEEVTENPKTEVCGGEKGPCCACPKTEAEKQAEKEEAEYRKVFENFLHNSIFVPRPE
# Chain of Insulin-like growth factor 1 receptor (P08069 741-1367 limits assumed): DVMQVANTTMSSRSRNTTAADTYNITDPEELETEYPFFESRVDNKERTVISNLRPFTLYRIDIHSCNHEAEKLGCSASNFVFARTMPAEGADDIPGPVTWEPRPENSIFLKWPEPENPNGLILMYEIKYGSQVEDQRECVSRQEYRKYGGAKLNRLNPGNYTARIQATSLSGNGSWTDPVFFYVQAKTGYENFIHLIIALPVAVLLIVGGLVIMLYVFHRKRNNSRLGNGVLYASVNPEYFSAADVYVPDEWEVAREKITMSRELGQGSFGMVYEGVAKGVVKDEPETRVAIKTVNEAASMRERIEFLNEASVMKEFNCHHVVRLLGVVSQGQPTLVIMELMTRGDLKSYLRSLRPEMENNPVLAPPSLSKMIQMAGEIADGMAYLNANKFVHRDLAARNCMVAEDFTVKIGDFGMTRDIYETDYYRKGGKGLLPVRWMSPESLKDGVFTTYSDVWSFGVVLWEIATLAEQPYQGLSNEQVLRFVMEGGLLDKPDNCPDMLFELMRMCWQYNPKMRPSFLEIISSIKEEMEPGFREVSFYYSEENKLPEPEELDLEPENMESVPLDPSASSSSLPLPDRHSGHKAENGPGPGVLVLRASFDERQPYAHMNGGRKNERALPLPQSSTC
# Chain of Serine/threonine-protein kinase MRCK alpha (Q5VT25 whole entry, the tested form may be a part): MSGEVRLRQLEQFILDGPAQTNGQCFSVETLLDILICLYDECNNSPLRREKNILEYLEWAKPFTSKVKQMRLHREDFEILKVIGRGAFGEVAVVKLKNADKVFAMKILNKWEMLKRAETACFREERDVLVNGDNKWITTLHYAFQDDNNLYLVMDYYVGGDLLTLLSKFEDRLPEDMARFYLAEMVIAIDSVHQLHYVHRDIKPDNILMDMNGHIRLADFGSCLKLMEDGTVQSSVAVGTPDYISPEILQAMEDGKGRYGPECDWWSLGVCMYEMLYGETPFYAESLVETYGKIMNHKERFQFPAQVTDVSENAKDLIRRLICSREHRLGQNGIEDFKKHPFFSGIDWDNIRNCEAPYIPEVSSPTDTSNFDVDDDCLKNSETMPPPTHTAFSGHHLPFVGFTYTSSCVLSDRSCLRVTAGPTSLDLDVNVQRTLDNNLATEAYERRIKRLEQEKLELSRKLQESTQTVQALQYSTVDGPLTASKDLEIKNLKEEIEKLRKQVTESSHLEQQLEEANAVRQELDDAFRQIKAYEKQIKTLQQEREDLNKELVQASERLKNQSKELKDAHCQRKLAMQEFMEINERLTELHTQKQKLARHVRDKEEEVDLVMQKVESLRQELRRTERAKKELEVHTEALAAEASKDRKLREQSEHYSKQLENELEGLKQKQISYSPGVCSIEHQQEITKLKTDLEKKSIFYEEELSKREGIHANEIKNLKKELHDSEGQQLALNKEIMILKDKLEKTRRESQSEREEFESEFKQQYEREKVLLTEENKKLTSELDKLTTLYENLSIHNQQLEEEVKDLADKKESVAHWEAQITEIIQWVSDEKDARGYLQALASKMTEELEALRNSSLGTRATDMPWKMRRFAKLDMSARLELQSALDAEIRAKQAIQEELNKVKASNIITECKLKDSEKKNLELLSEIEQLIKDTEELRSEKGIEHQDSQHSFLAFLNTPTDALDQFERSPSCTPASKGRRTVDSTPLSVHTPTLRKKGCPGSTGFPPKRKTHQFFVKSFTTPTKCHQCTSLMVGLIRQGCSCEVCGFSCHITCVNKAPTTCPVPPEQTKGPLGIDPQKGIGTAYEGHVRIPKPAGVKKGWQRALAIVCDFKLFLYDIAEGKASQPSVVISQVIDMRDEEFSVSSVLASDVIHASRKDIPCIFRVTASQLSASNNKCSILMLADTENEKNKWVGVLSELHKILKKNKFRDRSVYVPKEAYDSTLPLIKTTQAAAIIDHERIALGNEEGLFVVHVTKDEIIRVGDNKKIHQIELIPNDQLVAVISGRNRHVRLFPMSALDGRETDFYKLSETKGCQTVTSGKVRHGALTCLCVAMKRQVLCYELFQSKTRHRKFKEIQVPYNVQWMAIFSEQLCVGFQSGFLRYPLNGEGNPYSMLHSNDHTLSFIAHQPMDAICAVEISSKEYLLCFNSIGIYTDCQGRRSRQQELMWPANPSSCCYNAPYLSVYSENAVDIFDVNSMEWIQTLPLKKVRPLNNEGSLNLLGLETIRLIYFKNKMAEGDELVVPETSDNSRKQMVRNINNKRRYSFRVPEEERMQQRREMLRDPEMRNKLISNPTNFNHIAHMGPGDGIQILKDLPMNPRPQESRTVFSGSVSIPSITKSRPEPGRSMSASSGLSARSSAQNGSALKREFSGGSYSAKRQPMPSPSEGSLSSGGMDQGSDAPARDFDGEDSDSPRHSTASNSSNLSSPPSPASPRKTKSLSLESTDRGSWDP
# Chain of Protein kinase C delta type (Q05655 whole entry, the tested form may be a part): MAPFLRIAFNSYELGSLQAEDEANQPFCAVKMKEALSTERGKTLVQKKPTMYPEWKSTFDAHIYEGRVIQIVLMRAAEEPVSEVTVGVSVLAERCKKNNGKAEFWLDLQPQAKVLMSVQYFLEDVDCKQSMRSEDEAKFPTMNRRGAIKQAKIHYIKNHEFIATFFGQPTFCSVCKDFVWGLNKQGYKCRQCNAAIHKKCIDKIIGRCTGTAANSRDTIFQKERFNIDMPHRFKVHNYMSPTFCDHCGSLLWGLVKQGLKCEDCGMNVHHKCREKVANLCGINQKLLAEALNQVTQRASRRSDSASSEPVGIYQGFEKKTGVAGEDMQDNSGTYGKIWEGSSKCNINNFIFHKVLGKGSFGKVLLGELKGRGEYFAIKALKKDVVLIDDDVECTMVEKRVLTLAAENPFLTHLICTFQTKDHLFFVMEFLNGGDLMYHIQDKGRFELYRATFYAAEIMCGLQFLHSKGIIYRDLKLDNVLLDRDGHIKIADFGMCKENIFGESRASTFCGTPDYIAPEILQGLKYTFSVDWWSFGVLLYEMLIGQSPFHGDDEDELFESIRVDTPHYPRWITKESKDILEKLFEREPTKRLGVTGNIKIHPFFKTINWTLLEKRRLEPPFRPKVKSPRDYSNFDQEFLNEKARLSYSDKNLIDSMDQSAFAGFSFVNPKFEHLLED
# Chain of CDK3/Cyclin E (P24864 whole entry): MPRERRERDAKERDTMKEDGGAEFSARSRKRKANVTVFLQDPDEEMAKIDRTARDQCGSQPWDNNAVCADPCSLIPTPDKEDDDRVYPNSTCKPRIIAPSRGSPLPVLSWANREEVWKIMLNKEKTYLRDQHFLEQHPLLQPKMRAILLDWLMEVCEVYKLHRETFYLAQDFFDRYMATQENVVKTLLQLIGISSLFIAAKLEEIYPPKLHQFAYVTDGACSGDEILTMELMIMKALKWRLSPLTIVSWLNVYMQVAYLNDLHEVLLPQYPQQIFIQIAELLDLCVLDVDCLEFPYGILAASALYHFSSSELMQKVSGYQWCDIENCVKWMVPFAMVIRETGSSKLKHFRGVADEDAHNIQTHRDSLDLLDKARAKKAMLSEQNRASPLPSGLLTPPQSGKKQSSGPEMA
# Chain of CDK3/Cyclin E (Q00526 whole entry): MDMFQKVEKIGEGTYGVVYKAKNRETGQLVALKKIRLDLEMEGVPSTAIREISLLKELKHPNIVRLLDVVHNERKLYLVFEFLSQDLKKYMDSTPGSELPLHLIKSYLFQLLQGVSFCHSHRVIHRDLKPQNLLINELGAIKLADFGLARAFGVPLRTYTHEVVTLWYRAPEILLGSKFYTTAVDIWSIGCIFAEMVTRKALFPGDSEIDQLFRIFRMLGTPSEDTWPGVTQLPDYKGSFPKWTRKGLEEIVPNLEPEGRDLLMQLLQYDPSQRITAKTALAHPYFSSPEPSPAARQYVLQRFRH
# Chain of G protein-coupled receptor kinase 6 (P43250 whole entry): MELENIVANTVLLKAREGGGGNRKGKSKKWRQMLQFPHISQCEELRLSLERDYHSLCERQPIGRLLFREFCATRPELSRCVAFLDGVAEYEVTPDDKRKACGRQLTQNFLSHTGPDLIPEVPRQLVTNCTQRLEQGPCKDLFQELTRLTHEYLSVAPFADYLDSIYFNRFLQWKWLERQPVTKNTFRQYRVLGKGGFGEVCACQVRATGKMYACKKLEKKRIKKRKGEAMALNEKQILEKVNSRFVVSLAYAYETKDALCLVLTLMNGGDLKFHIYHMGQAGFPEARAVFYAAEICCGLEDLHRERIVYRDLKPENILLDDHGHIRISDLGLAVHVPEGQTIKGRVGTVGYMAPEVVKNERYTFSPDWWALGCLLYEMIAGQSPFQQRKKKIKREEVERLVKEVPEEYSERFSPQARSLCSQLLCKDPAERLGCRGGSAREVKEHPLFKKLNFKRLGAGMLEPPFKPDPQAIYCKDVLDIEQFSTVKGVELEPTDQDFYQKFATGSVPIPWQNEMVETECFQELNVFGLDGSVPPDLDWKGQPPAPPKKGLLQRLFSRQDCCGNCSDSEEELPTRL
smiles,measurement,setting,value
CN(C)c1ccc(C(=O)Nc2cccc(NC(=O)COc3ccc4c(=O)ccoc4c3)c2)cc1,IC50,[1],> 10 µM
same,IC50,[2],> 10 µM
same,IC50,[3],> 10 µM
same,IC50,[4],> 10 µM
same,IC50,[5],> 10 µM
same,IC50,[6],> 10 µM
same,IC50,CDK3/Cyclin E,> 10 µM
same,IC50,[7],> 10 µM
same,IC50,[8],> 10 µM
same,IC50,[9],> 10 µM
same,IC50,[10],> 10 µM
same,IC50,[11],> 10 µM
same,IC50,Rhodopsin kinase GRK7,> 10 µM
same,IC50,[12],> 10 µM
same,IC50,[13],> 10 µM
same,IC50,CDK2/Cyclin A1,> 10 µM
same,IC50,[14],> 10 µM
same,IC50,[15],> 10 µM
same,IC50,[16],> 10 µM
same,half-life,[17],1.1 min
same,IC50,[18],> 10 µM
same,IC50,[19],> 10 µM
same,IC50,[20],> 10 µM
same,IC50,Ephrin type-B receptor 3,> 10 µM
same,IC50,[21],> 10 µM
